{"source": "patent US20050267020A1", "about": "“Polypeptides derived from inducible hsp70 and pharmaceutical compositions containing the same” (priority 2001, published 2005)", "key": {"HHD mice": {"tested_on": "HHD mice", "experiment": "Vaccination of HHD mice, ex vivo IFN-γ ELISPOT assay", "format": "in vivo, mouse", "description": "Immune responses were monitored ex vivo in an IFN-γ Elispot assay. The X axis represents the percentage of immunized mice responding to the different epitopes.\nThe 8 graphs represent the immune responses obtained for each of the immunized mice with the 22-mer epitope. The X axis represents the number of IFN-γ producing CTLs for 10^5 ex vivo CD8+ cells upon activation. On the Y axis, the bars represent the respective level of IFN-γ producing CTLs against p391 or p393 peptide or against irrelevant HIV pol589 peptides.\nGeneration of CTL in HLA-transgenic mice. HLA-transgenic mice were injected subcutaneously at the base of the tail with 100 μg of peptide emulsified in incomplete Freund's adjuvant (IFA) in the presence of 140 μg of the I-A^b restricted HBVcore-derived T-helper epitope (128-140; sequence TPPAYRPPNAPIL). After 11 days, spleen cells (5×10^7 cells in 10 mL) were stimulated in vitro with peptide (10 μM). […]\nELISPOT Assay. The ELISPOT assay was used to quantify peptide epitope-specific, IFN-γ-releasing effector cells. […] The spots were counted using an automated image analysis system ELISPOT Reader (A/D Strassberg, Germany). The peptide-specific IFN-γ secreting cells frequency could be calculated from the numbers of spot-forming cells and from the CD8+ frequency in the studied lymphocyte population, adressed by immunostaining with an anti-CD8 mAb (clone 3B5; Caltag Laboratories, CA)."}, "human CD8+ cells": {"tested_on": "human CD8+ cells", "experiment": "Generation of CTL from human PBMC with peptide- or polyepitope-pulsed dendritic cells, intracellular IFN-γ staining", "format": "cell-based", "settings": "human PBMC; multiple restimulations of CD8+ cells; T2 cells loaded with p380, p391 or p393", "experimental": "The three graphs entitled hCTL380, hCTL391 and hCTL393 represent respectively the testing of p380, p391 and p393-specific human CTLs. P391 and p393 specific CTLs were tested towards EBV-B cells, whereas p380 specific CTLs were tested towards T2 cells. The number of IFN-γ producing CD8+ cells for 10^5 CD8+ cells upon activation, indicated on the X-axis, was measured, as assessed by staining cells for CD8 and intracellular IFN-γ.\nPolyepitope induced human CTL were tested for their capacity to respond to T2 cells loaded with p380, p391 or p393 or the irrelevant HIVpol589 peptides in intracellular IFN-γ staining. The X axis represents the number of IFNγ-producing CTL/10^5 CD8+ cells. On the Y axis, upper to lower bars represent the results obtained when cells were loaded respectively with irrelevant HIV pol589 peptides, or with p380, p391 or p393 peptides.\nGeneration of CTL from Human Peripheral Blood Mononuclear Cells (PBMC). Fresh PBMC collected from healthy donnors under informed consent were serologically typed for the studied HLA-class I molecule, and purified using standard Ficoll-Paque (Amersham Pharmacia Biotech AB). Dendritic cells (DC) were prepared by cultivating plastic adherent PBMC in the presence of 500 U/mL GM-CSF (R&D Systems Inc. MN) and 500 U/mL IL-4 (R&D Systems Inc. MN) for 7 days such as described in Keogh et al. (30).\nDC were then maturated for 2 days with 2 μg/mL anti-CD40 antibody and 100 ng/mL Poly I:C (Sigma-Aldrich). […] Autologous CD8+ purified T-cells (CD8 MicroBeads, Miltneyi Biotec Inc. CA) were stimulated weekly with DC pulsed for two hours with peptide (10 μM) and irradiated at 35Gy at a T:DC ratio of 10:1 in culture medium (CM; RPMI 1640 supplemented with 10% human AB serum, […] L-glutamine and gentamycin). 1×10^3 U/mL IL-6 and SU/mL IL-12 (R&D Systems Inc. MN) were added during the first week of culture. 20 U/mL clinical grade IL-2 (Proleukin, Chiron Corp.) and 10 ng/mL IL-7 (R&D Systems Inc. MN) were added during the next two weeks of culture. 7 days after the last stimulation with DC, peptide specific IFN-γ secreting CD8+ T cells were magnetically sorted following encounter of the peptide presented by HLA-A*0201+ B-EBV cells (IFN-γ Secretion Assay, Miltenyi Biotec Inc. CA). The characterization of peptide-specific T cells was tested 7 days after the purification step.\nIntracellular IFN-g Staining. 5×10^4 T cells were incubated with 10^5 stimulating peptide loaded EBV-B cells or with 10^5 tumor cells in the presence of 20 μg/ml brefeldin-A (Sigma, Oakville, Canada). Six hours later, they were washed, stained with r-phycoerythrin-conjugated anti-CD8 antibody (Caltag Laboratories, Burlingame, Calif.) in PBS for 25 min at 4° C., washed and fixed with 4% PFA. Then, cells were permeabilized with PBS 0.5% BSA 0.2% saponin (Sigma, Oakville, Canada), and stained with allophycocyanin-conjugated anti-IFNg mAb (PharMingen, Mississauga, Canada) for 25 min at 4° C. Cells were analyzed on FACSCalibur (Becton Dickinson, Mountain View, Calif.)."}}, "data": [{"sequence": "LMGDKSENVQDLLLLDVAPLSL [22-mer polyepitope]", "values": [{"measurement": "mice responding after vaccination", "setting": "HHD mice", "value": "induced responses in most mice"}, {"measurement": "epitopes against which immune responses were raised after vaccination", "setting": "HHD mice; HSP380, HSP391, HSP393 epitopes", "value": "induced immune responses against all three Hsp70 epitopes"}, {"measurement": "specificity of human CTL lines induced with pulsed dendritic cells", "setting": "human CD8+ cells", "value": "showed specificity towards all three Hsp70 epitopes"}]}]}
